Assay results from US20230113817A1, “DILEUCINE COMPOSITIONS AND METHODS OF USE THEREOF FOR FAT LOSS” (Ingenious Ingredients, LP, priority 2021, published 2023).

Legend:
[1] = test system: body fat of overweight subjects; test: Resistance exercise training study, body composition and body fat; type: in vivo, human; details: 2 g per day, n=7 per treatment group, beginning vs conclusion of study (FIG. 2)
Text: A randomized, double-blind, cross over design, resistance exercise training study was preformed to assess the impact of administration of the instantly disclosed compositions on subject body composition and body fat. Subjects were “overweight”, BMI of 26.8 in the leucine group, 25.0 in the dileucine group. Treatment groups received either leucine (2 g per day), dileucine (2 g per day), or placebo (n=7, per treatment group). Body measurements were taken at the beginning and conclusion of the study.

[2] = test system: body weight of male Swiss albino mice; test: Weight management study in treadmill-trained mice; type: in vivo; details: daily treatment for 28 days
Method: Animal studies were conducted to investigate the effects of test substances (treatment) on weight management in male Swiss albino mice. Animals were divided into 17 groups with each group consisting of 8 animals. The test groups were treated with the test substances daily for 28 days. All the animals were subjected to treadmill training for 5 days a week for 28 days. Measurements were taken on day 0 and 28th day.

Row | SMILES | body fat following resistance training [1] | Weight in grams ([2]; treadmill training 5 days a week, dileucine 411 mg/kg, partner doses per Table 1) [grams] | Percent Difference from Placebo ([2]; weight vs control group, treadmill training, doses per Table 1) [%]
1 | CC(C)C[C@H](N)C(=O)O [leucine] | modest increases in body fat |  | 
2 | CC(C)C[C@H](NC(=O)[C@@H](N)CC(C)C)C(=O)O [Dileucine, L-Leucyl-L-leucine] | decreased body fat | 33.23 | −2.69
